Counter-ions that a name gives are not always drawn. No end group written: not given here.
Experiments:
[1] = test system: MrgD receptor; settings: ref Tetzner et al., 2016; cited from earlier work
From the text: (§1) The reasons for this discrepancy could rely on the different approaches used to detect the cAMP levels. We desig ...

[2] = test system: Mas receptor; settings: ref Tetzner et al., 2016; cited from earlier work
From the text: as §1

[3] = test system: AT1R mRNA; assay: AT1R mRNA by qPCR after siRNA transfection of HEK293T cells; type: cell-based, human; settings: siRNA 100 nM, 48 h after transfection, β-Actin, three independent experiments
Procedure: HEK293T (human embryonic kidney) and A549 (human lung carcinoma) cells were cultured in Dulbecco’s modified Eagle’s medium (DMEM) supplemented with 10% fetal calf serum and 50 μg/ml gentamicin. Cultures were maintained at 37°C in humidified atmosphere containing 5% CO2. For transient transfections, cells were grown to 80–90% confluency and the cDNA constructs were transfected using the K2 Transfection System (Biontex, Munich, Germany). The transfection protocol was optimized as recommended by the suppliers. Assays were performed 48 h after transfection. […]
Total RNA was isolated from wild type or transfected HEK293T cells using Quick-Zol reagent (Kalium Technologies, Bernal, Argentina) following the manufacturer’s instructions. […] Quantitative real-time PCR (qPCR) was performed in triplicate on the Rotor Gene Q cycler (Qiagen, Hilden, Germany) using the resulting cDNA, the HOT FIREPol EvaGreen qPCR Mix Plus (Solis BioDyne, Tartu, Estonia) for product detection, and the following primers: human MasR (NM_002377.2) forward, 5′-[…] -3′ and reverse 5′-[…]-3′; human AT1R (M93394.1) forward, 5′-[…]-3′ and reverse, 5′-[…]-3′; human AT2R (NM_000686.4) forward, 5′-[…]-3′ and reverse 5′-[…]-3′; and human β-Actin forward, 5′-[…]-3′ and reverse 5′-[…]-3′. […]

[4] = test system: rat proximal straight tubule; settings: against 10^-12 and 10^-8 M Ang-(1–7); ref Garcia and Garvin (1994); cited from earlier work
From the text: (§2) The analysis of the interaction between Ang-(1–7) and the AT1R originated discrepancies. […] In addition, [Teixeira et al. (2017)] by performing competition binding assays using ...

[5] = test system: MasR; design: method as in 2 sources, one per row (each row's own in cited_ref): ref Bikkavilli et al., 2006; Shemesh et al., 2008; Zhang et al., 2012; Tirupula et al., 2014 ||| ref Dong et al., 2001; settings: ref Dong et al., 2001; cited from earlier work
[6] = biological target: AT1R (Homo sapiens) (UniProt P30556); assay: competition binding with 3H-Ang II; settings: cited from earlier work
Sequence of AT1R (Homo sapiens) (P30556 whole entry): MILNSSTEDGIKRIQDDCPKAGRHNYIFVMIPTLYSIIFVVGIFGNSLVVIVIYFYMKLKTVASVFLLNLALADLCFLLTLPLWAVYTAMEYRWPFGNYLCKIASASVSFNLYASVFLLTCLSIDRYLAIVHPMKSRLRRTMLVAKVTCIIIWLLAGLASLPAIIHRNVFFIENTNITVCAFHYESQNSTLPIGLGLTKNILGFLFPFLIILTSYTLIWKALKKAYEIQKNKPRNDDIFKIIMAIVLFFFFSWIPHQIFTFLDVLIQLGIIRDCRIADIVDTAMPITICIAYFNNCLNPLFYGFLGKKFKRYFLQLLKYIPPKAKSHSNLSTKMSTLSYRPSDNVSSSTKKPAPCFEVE

[7] = biological target: AT1R (Homo sapiens) (UniProt P30556); assay: competition binding; settings: cited from earlier work
[8] = test system: A549 cells; assay: Intracellular Ca^2+ (Fura-2AM) in A549 cells with endogenous MasR; type: cell-based, human; settings: histamine 10^-4 M, 340/380 ratio, 180 s, representative of three independent experiments
Procedure: Changes in intracellular Ca^2+ concentration were measured using fura-2 acetoxymethyl ester (Fura-2AM) fluorescent indicator. A549 cells were seeded in 96 wells dishes for 24 h (90–100% confluence). […] Fluorescence was measured in a FlexStation 3 microplate reader (Molecular Devices Inc., San Jose, CA, United States). […] After 30 s of initial recording to determine basal levels, 100 nM Ang (1–7) or 100 μM histamine was added in 100 μl final volumes, and the time course of intracellular Ca^2+ mobilization was recorded for 180 s. […] Autofluorescence was quantified by measuring the fluorescence produced by an equivalent suspension of not-loaded cells. Results were expressed as the ratio of fluorescence’s 340/380 over basal. Basal levels were determined as the media of the recorded measurements in the first 30 s for each well.

[9] = test system: MasR (A549 cells); assay: Intracellular Ca^2+ (Fura-2AM) in A549 cells transfected with pcDNA 3.1/myc-MasR; type: cell-based, human; settings: histamine 10^-4 M, same conditions (Figure 3E,F: empty vector or MasR)
Procedure: An empty vector [pcDNA 3.1 (+)] was used both as negative control and to deliver an equal amount of plasmid per transfection in all the experiments.
Changes in intracellular Ca^2+ concentration were measured using fura-2 acetoxymethyl ester (Fura-2AM) fluorescent indicator. […] Fluorescence was measured in a FlexStation 3 microplate reader (Molecular Devices Inc., San Jose, CA, United States). […] After 30 s of initial recording to determine basal levels, 100 nM Ang (1–7) or 100 μM histamine was added in 100 μl final volumes, and the time course of intracellular Ca^2+ mobilization was recorded for 180 s. […] Autofluorescence was quantified by measuring the fluorescence produced by an equivalent suspension of not-loaded cells. Results were expressed as the ratio of fluorescence’s 340/380 over basal. […]

[10] = test system: renal AT1R; settings: pM range; reference not clearly printed; cited from earlier work
From the text: as §2

[11] = test system: AT1R; settings: CHO-K1 cells; ref Kostenis et al., 2005; cited from earlier work
From the text: The modulation of the activity of ERK1/2 by Ang-(1–7) has been analyzed previously. […] Participation of the M ...

[12] = test system: HEK293T cells; assay: cAMP accumulation, forskolin-stimulated, in empty-vector (pcDNA 3.1) HEK293T cells; type: cell-based, human; settings: HEK293T transfected with empty vector; 1 mM IBMX, 1 μM forskolin; ligand 5 min; three independent experiments
Procedure: For time-course assays, transfected cells were seeded in 24 wells dishes and after 24 h, 100% confluent cells were starved for 2 h and incubated 5 min in basal culture medium supplemented with 1 mM IBMX at 37°C, followed by exposure to 1 μM forskolin for 5, 10, 15, 30, or 60 min. In concentration response assays, transfected cells were seeded in 24 wells dishes after 24 h, 100% confluent cells were starved for 2 h and incubated 5 min in basal culture medium supplemented with 1 mM IBMX at 37°C, followed by 10 min exposure to 1 μM forskolin to increase basal cAMP levels, and incubated for 5 min with indicated concentrations of Ang-(1–7) or AVE 0991. For all cAMP determinations, the reactions were stopped by ethanol addition followed by centrifugation at 2,000 g for 10 min. The ethanol phase was then dried, and the residue resuspended in 50 mM Tris-HCl pH 7.4, 0.1% BSA. cAMP content was determined by competition of [^3H]cAMP for PKA, as previously described ([Davio et al., 1995]).

[13] = test system: heart; settings: orally active; ref Ferreira et al., 2007; cited from earlier work
From the text: The physiological relevance of the constitutive activity of the MasR remains to be determined. Constitutive activity of GPCRs for various neurotransmitters contributes to basal neuronal activity ([Seifert and Wenzel-Seifert, 2002]). The mRNA encoding the MasR has been detected in various regions of the rat and mouse brain ([Young et al., 1988]; [Bunnemann et al., 1990]; [Martin et al., 1992]; [Metzger et al., 1995]). In addition, it has been reported that MasR-KO mice have alterations of the CNS ([Walther et al., 1998], [2000a],[b]). Thus, the constitutive activity of the MasR could play a reg ...

[14] = biological target: T1, human MasR (Homo sapiens, UniProt P04201); assay: cAMP accumulation, forskolin-stimulated, in MasR-transfected HEK293T cells (competition of [^3H]cAMP for PKA); type: cell-based; settings: 1 mM IBMX
T1 construct: host or cells: HEK293T, transient transfection
T1 sequence (P04201 1-325): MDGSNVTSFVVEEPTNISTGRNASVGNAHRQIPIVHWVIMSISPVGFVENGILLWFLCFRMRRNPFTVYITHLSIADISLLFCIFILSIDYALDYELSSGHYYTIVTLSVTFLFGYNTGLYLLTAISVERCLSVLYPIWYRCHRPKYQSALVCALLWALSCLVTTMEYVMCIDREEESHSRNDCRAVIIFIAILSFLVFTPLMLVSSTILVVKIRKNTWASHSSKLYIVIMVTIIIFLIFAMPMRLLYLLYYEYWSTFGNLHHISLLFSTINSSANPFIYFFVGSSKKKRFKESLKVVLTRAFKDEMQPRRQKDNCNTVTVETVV
Procedure: A pcDNA3.1(+)-myc-MasR expression construct corresponding to the human MasR (accession number: NM_002377.2) fused to the c-myc tag peptide at N-terminal was acquired from Life Technologies (Grand Island, NY, United States). An empty vector [pcDNA 3.1 (+)] was used both as negative control and to deliver an equal amount of plasmid per transfection in all the experiments.
Cultures were maintained at 37°C in humidified atmosphere containing 5% CO2. For transient transfections, cells were grown to 80–90% confluency and the cDNA constructs were transfected using the K2 Transfection System (Biontex, Munich, Germany). The transfection protocol was optimized as recommended by the suppliers. Assays were performed 48 h after transfection. […] The transfection protocol was optimized as recommended by the suppliers. Assays were performed 48 h after transfection.
For determination of cAMP basal levels, transfected cells were seeded in 12 wells dishes, 24 h later 100% confluent cells were starved for 2 h and pretreated, when indicated, for 1 h with pertussis toxin (100 ng/ml) and incubated later for 30 min in basal culture medium supplemented with 1 mM IBMX at 37°C. […] The ethanol phase was then dried, and the residue resuspended in 50 mM Tris-HCl pH 7.4, 0.1% BSA. cAMP content was determined by competition of [^3H]cAMP for PKA, as previously described ([Davio et al., 1995]).

[15] = test system: MasR; design: method as in Gaidarov et al. (2018); settings: 30 min forskolin pre-incubation, 60 min with ligand; ref Gaidarov et al. (2018); cited from earlier work

For D-Pro7-Ang-(1–7), the “antagonism of Ang-(1–7)-induced cAMP increase, HEK293 overexpressing MrgD” value [1] is given as “blocked” and the “antagonism of Ang-(1–7)-induced cAMP increase, HEK293 overexpressing Mas” value [2] is given as “blocked”.
For D-Ala7-Ang-(1–7), the “antagonism of Ang-(1–7)-induced cAMP increase, HEK293 overexpressing MrgD” value [1] is listed as “blocked” and the “antagonism of Ang-(1–7)-induced cAMP increase, HEK293 overexpressing Mas” value [2] is listed as “blocked”.
With “AT1R siRNA: human AT1R siRNA (AUACGUGACUGUAGAAUUG) (chemistry not given here)” the “reduction of AT1R mRNA levels versus scrambled siRNA” value [3] was ~50%.
In the case of `CCCCc1nc(Cl)c(CO)n1Cc1ccc(-c2ccccc2-c2nn[nH]n2)cc1` [losartan], the “block of Ang-(1–7) effects on absorption” value [4] is listed as “both effects were blocked by losartan”.
For “NPFF: neuropeptide FF (FLFQPQRF; ends and bridges not checked; UniProt O15130 69-76, looked up)”, the “conventional G protein signaling, NPFF” value [5] is listed as “conventional G protein signaling has been reported”.
For Angiotensin-(1-7) (from UniProt P01019), the Ki [6] is given as 200 nM and the Ki [7] is given as 360 nM.
For `NCCc1c[nH]cn1` [histamine, histamine dihydrochloride], the “intracellular Ca^2+ levels, A549 cells (endogenous MasR), positive control” value [8] was “significant increase in cytosolic Ca^2+ levels” and the “intracellular Ca^2+ levels, transfected A549 cells, positive control” value [9] was “important increase in Ca^2+ levels”.
In the case of “Ang II: angiotensin II, of the classical RAS axis (DRVYIHPF; Angiotensin-2; UniProt P01019 25-32, looked up)”, the “affinity of renal AT1R on proximal tubules” value [10] is listed as “very high affinity for Ang II (in the pM range)” and the “Ang II-induced IP1 production and Ca^2+ increase on MasR/AT1R coexpression” value [11] is listed as “significantly decreased both the Ang II-induced production of IP1 and the increase of intracellular Ca^2+ levels mediated by the AT1R”.
For `CCNC(=O)NS(=O)(=O)c1sc(CC(C)C)cc1-c1ccc(Cn2c(-c3ccccc3)nc(OC)c2C=O)cc1` [AVE 0991, 5-formyl-4-methoxy-2-phenyl-1-[[4-[2-ethylaminocarbonylsulfonamido-5-isobutil-3-thienyl]phenyl]-methyl]imidazole], the “modulation of cAMP levels, empty vector” value [12] is given as “did not alter cAMP levels”, the “heart dysfunction, AVE 0991” value [13] is given as “beneficial effects obtained in heart dysfunction” and the “modulation of cAMP levels” value ([14]; HEK293T overexpressing MasR, 1 μM forskolin, ligand 5 min) is given as “concentration-dependent decrease in the production of cAMP”. For the same compound, the “pEC50, concentration-dependent decrease in the production of cAMP” value ([14]; HEK293T transfected with pcDNA3.1/c-myc-MasR, 10 min 1 μM forskolin, then 5 min ligand, 37°C, mean ± SEM of three independent experiments) was 7.75 ± 0.40 and the “forskolin-stimulated cAMP levels in MasR-transfected HEK293 cells” value [15] was “no change in forskolin-stimulated cAMP levels”.
